Test results: US20100324282A1, “METHOD FOR SEPARATING HETEROPOLYACID” (TOYOTA JIDOSHA KABUSHIKI KAISHA, priority 2009, published 2010)

Legend:
Assay type in all cases: physicochemical
[1] = Assay of solubility of phosphotungstic acid in organic solvent; conditions: in the listed organic solvent, room temperature
Protocol: Phosphotungstic acid was added to an organic solvent at room temperature. Phosphotungstic acid was continuously added until it was not able to dissolve therein, and solubility was determined based on the entire amount of phosphotungstic acid added.

[2] = Distribution ratio of phosphotungstic acid to organic solvent and water (powdery phosphotungstic acid); conditions: ICP
Protocol: (§1) The resultant was stirred and allowed to stand, followed by phase separation. Samples were obtained from each phase in an amount of 1 ml and the samples were dried using a centrifuge. The dried specimens were analyzed by the inductively coupled plasma (ICP) mass spectrometer. Water was dissolved in each phase in order to identify an aqueous phase.

[3] = Heating reaction test with phosphotungstic acid triacontahydrate: distribution of phosphotungstic acid; conditions: phosphotungstic acid triacontahydrate 30 g + glucose 5 g, heated
Protocol: (§2) Phosphotungstic acid triacontahydrate (30 g) was mixed with glucose (5 g), the resultant was heated, and various types of the selected organic solvents were added in amounts 3 times greater than the minimal amount of the solvent necessary to dissolve phosphotungstic acid (by volume). The resultant was stirred and allowed to stand, followed by phase separation. The samples were dried using a centrifuge, the phosphotungstic acid content in the dried specimens was analyzed by the ICP mass spectrometer, and glucose content was assayed via liquid chromatography.

[4] = Distribution ratio of phosphotungstic acid to organic solvent and water (saturated aqueous solution of phosphotungstic acid); conditions: ICP
Protocol: as §1, with “ICP” for “inductively coupled plasma (ICP)”

[5] = Heating reaction test with saturated aqueous solution of phosphotungstic acid: distribution of glucose; conditions: saturated aqueous solution of phosphotungstic acid triacontahydrate 30 g + glucose 5 g, heated
Protocol: (§3) A saturated aqueous solution containing 30 g of phosphotungstic acid triacontahydrate was mixed with 5 g of glucose, the mixture was heated, and various types of the selected organic solvents were then added thereto in amounts 3 times greater than the minimal amount of the solvent necessary to dissolve phosphotungstic acid (by volume). The resultant was stirred and allowed to stand, followed by phase separation. Samples were dried using a centrifuge, the phosphotungstic acid content in the dried specimens was analyzed by the ICP mass spectrometer, and glucose content was assayed via liquid chromatography.

[6] = Heating reaction test with phosphotungstic acid triacontahydrate: distribution of glucose; conditions: phosphotungstic acid triacontahydrate 30 g + glucose 5 g, heated
Protocol: as §2

[7] = Heating reaction test with saturated aqueous solution of phosphotungstic acid: distribution of phosphotungstic acid; conditions: saturated aqueous solution of phosphotungstic acid triacontahydrate 30 g + glucose 5 g, heated
Protocol: as §3

[8] = Assay of solubility of glucose in organic solvent; conditions: in the listed organic solvent, room temperature
Protocol: Glucose was added to an organic solvent at room temperature. Glucose was continuously added until it was not able to dissolve therein, and solubility was determined based on the entire amount of glucose added.

[9] = Assay of distribution ratio of glucose (saturated aqueous solution of phosphotungstic acid)
Protocol: n-Butyl ethyl ether (26.67 ml) was added to a saturated aqueous solution containing 30 g of phosphotungstic acid. The resultant was stirred and allowed to stand, followed by phase separation. Glucose was continuously added until glucose was not able to dissolve in each phase. Solubility of glucose in n-butyl ethyl ether was determined based on the amount of glucose dissolved.

Row | Solubility of phosphotungstic acid (wt %) [1] | Distribution ratio of phosphotungstic acid (based on tungsten) (%) ([2]; First phase (from top)) | Distribution ratio of phosphotungstic acid (based on tungsten) (%) ([2]; Second phase (from top)) | Distribution ratio of phosphotungstic acid (based on tungsten) (%) ([3]; First phase) | Distribution ratio of phosphotungstic acid (based on tungsten) (%) ([3]; Second phase (aqueous phase)) | Distribution ratio of phosphotungstic acid (based on tungsten) (%) ([4]; First phase (from top)) | Distribution ratio of phosphotungstic acid (based on tungsten) (%) ([4]; Second phase (from top)) | Distribution ratio of phosphotungstic acid (based on tungsten) (%) ([4]; Third phase (from top)) | Distribution ratio of glucose (%) ([5]; First phase) | Distribution ratio of glucose (%) ([5]; Second phase (aqueous phase)) | Distribution ratio of glucose (%) ([6]; Second phase (aqueous phase)) | Distribution ratio of phosphotungstic acid (based on tungsten) (%) ([7]; First phase) | Distribution ratio of phosphotungstic acid (based on tungsten) (%) ([7]; Second phase (aqueous phase)) | Solubility of glucose (wt %) [8] | Compound | Distribution ratio of phosphotungstic acid (based on tungsten) (%) ([2]; Third phase (from top)) | Distribution ratio of phosphotungstic acid (based on tungsten) (%) ([3]; Third phase) | Distribution ratio of glucose (%) ([5]; Third phase) | Distribution ratio of glucose (%) ([6]; Third phase) | Distribution ratio of phosphotungstic acid (based on tungsten) (%) ([7]; Third phase) | further results
1 | 200 wt % | 97.7% | 2.3% | 96.9% | 3.1% | 1.3% | 97.3% | 1.4% | 0% | 100% | 100% | 96.8% | 3.2% | <0.045 wt % | CCCCCCCCO [1-Octanol] | – | – | – | – | – | –
2 | 200 wt % | 97.9% | 2.1% | 98.3% | 1.7% | 1.0% | 97.7% | 1.3% | 0.8% | 99.2% | 100% | 98.1% | 1.9% | <0.043 wt % | CCCCCCC(C)O (stereo not shown) [2-Octanol] | – | – | – | – | – | –
3 | 300 wt % | 0.1% | 2.9% | 0.1% | 10.2% | 0.1% | 5.1% | 94.8% | – | 100% | 100% | 0.1% | 8.9% | <0.03 wt % | CCCCOCC [n-Butyl ethyl ether] | 97.0% | 89.7% | 0% | 0% | 91.0% | Distribution ratio of phosphotungstic acid (based on tungsten) (%) ([2]; Third phase (from top), listed as n-butyl ethyl ether): 97%; Distribution ratio of glucose (%) ([9]; First phase): 0.1%; Distribution ratio of glucose (%) ([9]; Second phase (aqueous)): 97.7%; Distribution ratio of glucose (%) ([9]; Third phase): 2.2%

Row | Compound | Solubility of phosphotungstic acid (wt %) [1] | Distribution ratio of phosphotungstic acid (based on tungsten) (%) ([2]; First phase (from top)) | Distribution ratio of phosphotungstic acid (based on tungsten) (%) ([2]; Second phase (from top)) | Distribution ratio of phosphotungstic acid (based on tungsten) (%) ([3]; First phase) | Distribution ratio of phosphotungstic acid (based on tungsten) (%) ([3]; Second phase (aqueous phase)) | Distribution ratio of phosphotungstic acid (based on tungsten) (%) ([4]; First phase (from top)) | Distribution ratio of phosphotungstic acid (based on tungsten) (%) ([4]; Second phase (from top)) | Distribution ratio of phosphotungstic acid (based on tungsten) (%) ([4]; Third phase (from top)) | Distribution ratio of glucose (%) ([5]; First phase) | Distribution ratio of glucose (%) ([5]; Second phase (aqueous phase)) | Distribution ratio of glucose (%) ([6]; Second phase (aqueous phase)) | Distribution ratio of phosphotungstic acid (based on tungsten) (%) ([7]; First phase) | Distribution ratio of phosphotungstic acid (based on tungsten) (%) ([7]; Second phase (aqueous phase)) | Solubility of glucose (wt %) [8] | Distribution ratio of phosphotungstic acid (based on tungsten) (%) ([2]; Third phase (from top)) | Distribution ratio of phosphotungstic acid (based on tungsten) (%) ([3]; Third phase) | Distribution ratio of glucose (%) ([5]; Third phase) | Distribution ratio of glucose (%) ([6]; Third phase) | Distribution ratio of phosphotungstic acid (based on tungsten) (%) ([7]; Third phase) | further results
4 | CCOCC [Diethyl ether] | >229.3 wt % | 0.01% | 99.4% | 0.03% | 1.7% | 0.01% | 1.5% | 98.5% | 0% | 100% | 100% | 0.04% | 1.6% | <0.025 wt % | 0.6% | 98.3% | 0% | 0% | 98.3% | Distribution ratio of glucose (%) ([6]; First phase): 0%
